Measurements taken from patent US20240407365A1, “Method for Treating Technical Products” (THOR GMBH, priority 2021, published 2024).

Assay: amount of CMIT remaining in water-based dispersion paint after storage, HPLC
Format: physicochemical
Settings: paint pH 8.3
Procedure: The amounts of 5-chloro-2-methyl-4-isothiazolinone and zinc oxide specified in Table 1 were added to and homogeneously incorporated in aliquots of a commercially available, preservative-free, water-based matt interior dispersion paint (pH: 8.3; binder: ethylene vinyl acetate; pigment volume concentration (PVC): 77%). After 30 to 45 minutes, the sodium pyrithione was then added. The controls used were samples containing chloro-2-methyl-4-isothiazolinone and sodium pyrithione without zinc oxide and samples containing chloro-2-methyl-4-isothiazolinone only. The samples were stored at 21° C. and, after the time intervals specified in Table 1 (4 hours, 24 hours, 72 hours, 168 hours and 336 hours), the amount of chloro-2-methyl-4-isothiazolinone remaining in the paint was determined with the aid of HPLC analyses.

[1] = NaPy 0 ppm, CMIT 25 ppm, ZnO 0 ppm
[2] = NaPy 0 ppm, CMIT 50 ppm, ZnO 0 ppm
[3] = NaPy 0 ppm, CMIT 100 ppm, ZnO 0 ppm
[4] = NaPy 130 ppm, CMIT 25 ppm, ZnO 0 ppm
[5] = NaPy 130 ppm, CMIT 25 ppm, ZnO 75 ppm
[6] = NaPy 130 ppm, CMIT 25 ppm, ZnO 150 ppm
[7] = NaPy 130 ppm, CMIT 25 ppm, ZnO 225 ppm
[8] = NaPy 130 ppm, CMIT 25 ppm, ZnO 300 ppm
[9] = NaPy 130 ppm, CMIT 25 ppm, ZnO 375 ppm
[10] = NaPy 130 ppm, CMIT 25 ppm, ZnO 450 ppm
[11] = NaPy 130 ppm, CMIT 25 ppm, ZnO 525 ppm
[12] = NaPy 130 ppm, CMIT 50 ppm, ZnO 0 ppm
[13] = NaPy 130 ppm, CMIT 50 ppm, ZnO 75 ppm
[14] = NaPy 130 ppm, CMIT 50 ppm, ZnO 150 ppm
[15] = NaPy 130 ppm, CMIT 50 ppm, ZnO 225 ppm
[16] = NaPy 130 ppm, CMIT 50 ppm, ZnO 300 ppm
[17] = NaPy 130 ppm, CMIT 50 ppm, ZnO 375 ppm
[18] = NaPy 130 ppm, CMIT 50 ppm, ZnO 450 ppm
[19] = NaPy 130 ppm, CMIT 50 ppm, ZnO 525 ppm
[20] = NaPy 130 ppm, CMIT 100 ppm, ZnO 0 ppm
[21] = NaPy 130 ppm, CMIT 100 ppm, ZnO 75 ppm
[22] = NaPy 130 ppm, CMIT 100 ppm, ZnO 150 ppm
[23] = NaPy 130 ppm, CMIT 100 ppm, ZnO 225 ppm
[24] = NaPy 130 ppm, CMIT 100 ppm, ZnO 300 ppm
[25] = NaPy 130 ppm, CMIT 100 ppm, ZnO 375 ppm
[26] = NaPy 130 ppm, CMIT 100 ppm, ZnO 450 ppm
[27] = NaPy 130 ppm, CMIT 100 ppm, ZnO 525 ppm

Cn1sc(Cl)cc1=O [CIMT, 5-chloro-2-methyl-4-isothiazolinone]
CIMT [ppm] after storage at 21° C. 4 [h] [1]: 25 ppm | CIMT [ppm] after storage at 21° C. 24 h [1]: 25 ppm | CIMT [ppm] after storage at 21° C. 72 h [1]: 24 ppm | CIMT [ppm] after storage at 21° C. 168 h [1]: 24 ppm | CIMT [ppm] after storage at 21° C. 336 h [1]: 22 ppm | CIMT [ppm] after storage at 21° C. 4 [h] [2]: 50 ppm | CIMT [ppm] after storage at 21° C. 24 h [2]: 50 ppm | CIMT [ppm] after storage at 21° C. 72 h [2]: 49 ppm | CIMT [ppm] after storage at 21° C. 168 h [2]: 47 ppm | CIMT [ppm] after storage at 21° C. 336 h [2]: 47 ppm | CIMT [ppm] after storage at 21° C. 4 [h] [3]: 101 ppm | CIMT [ppm] after storage at 21° C. 24 h [3]: 100 ppm | CIMT [ppm] after storage at 21° C. 72 h [3]: 101 ppm | CIMT [ppm] after storage at 21° C. 168 h [3]: 99 ppm | CIMT [ppm] after storage at 21° C. 336 h [3]: 95 ppm | CIMT [ppm] after storage at 21° C. 4 [h] [4]: <LOQ (below the limit of determination (<0.5 ppm CMIT)) | CIMT [ppm] after storage at 21° C. 24 h [4]: <LOQ (below the limit of determination (<0.5 ppm CMIT)) | CIMT [ppm] after storage at 21° C. 72 h [4]: <LOQ (below the limit of determination (<0.5 ppm CMIT)) | CIMT [ppm] after storage at 21° C. 168 h [4]: <LOQ (below the limit of determination (<0.5 ppm CMIT)) | CIMT [ppm] after storage at 21° C. 336 h [4]: <LOQ (below the limit of determination (<0.5 ppm CMIT)) | CIMT [ppm] after storage at 21° C. 4 [h] [5]: 13 ppm | CIMT [ppm] after storage at 21° C. 24 h [5]: 4 ppm | CIMT [ppm] after storage at 21° C. 72 h [5]: 1 ppm | CIMT [ppm] after storage at 21° C. 168 h [5]: <LOQ (below the limit of determination (<0.5 ppm CMIT)) | CIMT [ppm] after storage at 21° C. 336 h [5]: <LOQ (below the limit of determination (<0.5 ppm CMIT)) | CIMT [ppm] after storage at 21° C. 4 [h] [6]: 19 ppm | CIMT [ppm] after storage at 21° C. 24 h [6]: 11 ppm | CIMT [ppm] after storage at 21° C. 72 h [6]: 6 ppm | CIMT [ppm] after storage at 21° C. 168 h [6]: 2 ppm | CIMT [ppm] after storage at 21° C. 336 h [6]: <LOQ (below the limit of determination (<0.5 ppm CMIT)) | CIMT [ppm] after storage at 21° C. 4 [h] [7]: 23 ppm | CIMT [ppm] after storage at 21° C. 24 h [7]: 17 ppm | CIMT [ppm] after storage at 21° C. 72 h [7]: 11 ppm | CIMT [ppm] after storage at 21° C. 168 h [7]: 7 ppm | CIMT [ppm] after storage at 21° C. 336 h [7]: 2 ppm | CIMT [ppm] after storage at 21° C. 4 [h] [8]: 24 ppm | CIMT [ppm] after storage at 21° C. 24 h [8]: 21 ppm | CIMT [ppm] after storage at 21° C. 72 h [8]: 14 ppm | CIMT [ppm] after storage at 21° C. 168 h [8]: 12 ppm | CIMT [ppm] after storage at 21° C. 336 h [8]: 6 ppm | CIMT [ppm] after storage at 21° C. 4 [h] [9]: 25 ppm | CIMT [ppm] after storage at 21° C. 24 h [9]: 22 ppm | CIMT [ppm] after storage at 21° C. 72 h [9]: 20 ppm | CIMT [ppm] after storage at 21° C. 168 h [9]: 15 ppm | CIMT [ppm] after storage at 21° C. 336 h [9]: 10 ppm | CIMT [ppm] after storage at 21° C. 4 [h] [10]: 26 ppm | CIMT [ppm] after storage at 21° C. 24 h [10]: 22 ppm | CIMT [ppm] after storage at 21° C. 72 h [10]: 22 ppm | CIMT [ppm] after storage at 21° C. 168 h [10]: 19 ppm | CIMT [ppm] after storage at 21° C. 336 h [10]: 12 ppm | CIMT [ppm] after storage at 21° C. 4 [h] [11]: 24 ppm | CIMT [ppm] after storage at 21° C. 24 h [11]: 21 ppm | CIMT [ppm] after storage at 21° C. 72 h [11]: 21 ppm | CIMT [ppm] after storage at 21° C. 168 h [11]: 18 ppm | CIMT [ppm] after storage at 21° C. 336 h [11]: 14 ppm | CIMT [ppm] after storage at 21° C. 4 [h] [12]: 3 ppm | CIMT [ppm] after storage at 21° C. 24 h [12]: <LOQ (below the limit of determination (<0.5 ppm CMIT)) | CIMT [ppm] after storage at 21° C. 72 h [12]: <LOQ (below the limit of determination (<0.5 ppm CMIT)) | CIMT [ppm] after storage at 21° C. 168 h [12]: <LOQ (below the limit of determination (<0.5 ppm CMIT)) | CIMT [ppm] after storage at 21° C. 336 h [12]: <LOQ (below the limit of determination (<0.5 ppm CMIT)) | CIMT [ppm] after storage at 21° C. 4 [h] [13]: 21 ppm | CIMT [ppm] after storage at 21° C. 24 h [13]: 9 ppm | CIMT [ppm] after storage at 21° C. 72 h [13]: 2 ppm | CIMT [ppm] after storage at 21° C. 168 h [13]: <LOQ (below the limit of determination (<0.5 ppm CMIT)) | CIMT [ppm] after storage at 21° C. 336 h [13]: <LOQ (below the limit of determination (<0.5 ppm CMIT)) | CIMT [ppm] after storage at 21° C. 4 [h] [14]: 31 ppm | CIMT [ppm] after storage at 21° C. 24 h [14]: 19 ppm | CIMT [ppm] after storage at 21° C. 72 h [14]: 11 ppm | CIMT [ppm] after storage at 21° C. 168 h [14]: 8 ppm | CIMT [ppm] after storage at 21° C. 336 h [14]: 1 ppm | CIMT [ppm] after storage at 21° C. 4 [h] [15]: 38 ppm | CIMT [ppm] after storage at 21° C. 24 h [15]: 29 ppm | CIMT [ppm] after storage at 21° C. 72 h [15]: 21 ppm | CIMT [ppm] after storage at 21° C. 168 h [15]: 15 ppm | CIMT [ppm] after storage at 21° C. 336 h [15]: 8 ppm | CIMT [ppm] after storage at 21° C. 4 [h] [16]: 47 ppm | CIMT [ppm] after storage at 21° C. 24 h [16]: 42 ppm | CIMT [ppm] after storage at 21° C. 72 h [16]: 34 ppm | CIMT [ppm] after storage at 21° C. 168 h [16]: 24 ppm | CIMT [ppm] after storage at 21° C. 336 h [16]: 14 ppm | CIMT [ppm] after storage at 21° C. 4 [h] [17]: 49 ppm | CIMT [ppm] after storage at 21° C. 24 h [17]: 49 ppm | CIMT [ppm] after storage at 21° C. 72 h [17]: 40 ppm | CIMT [ppm] after storage at 21° C. 168 h [17]: 30 ppm | CIMT [ppm] after storage at 21° C. 336 h [17]: 23 ppm | CIMT [ppm] after storage at 21° C. 4 [h] [18]: 50 ppm | CIMT [ppm] after storage at 21° C. 24 h [18]: 47 ppm | CIMT [ppm] after storage at 21° C. 72 h [18]: 42 ppm | CIMT [ppm] after storage at 21° C. 168 h [18]: 35 ppm | CIMT [ppm] after storage at 21° C. 336 h [18]: 28 ppm | CIMT [ppm] after storage at 21° C. 4 [h] [19]: 51 ppm | CIMT [ppm] after storage at 21° C. 24 h [19]: 50 ppm | CIMT [ppm] after storage at 21° C. 72 h [19]: 45 ppm | CIMT [ppm] after storage at 21° C. 168 h [19]: 38 ppm | CIMT [ppm] after storage at 21° C. 336 h [19]: 31 ppm | CIMT [ppm] after storage at 21° C. 4 [h] [20]: 8 ppm | CIMT [ppm] after storage at 21° C. 24 h [20]: <LOQ (below the limit of determination (<0.5 ppm CMIT)) | CIMT [ppm] after storage at 21° C. 72 h [20]: <LOQ (below the limit of determination (<0.5 ppm CMIT)) | CIMT [ppm] after storage at 21° C. 168 h [20]: <LOQ (below the limit of determination (<0.5 ppm CMIT)) | CIMT [ppm] after storage at 21° C. 336 h [20]: <LOQ (below the limit of determination (<0.5 ppm CMIT)) | CIMT [ppm] after storage at 21° C. 4 [h] [21]: 37 ppm | CIMT [ppm] after storage at 21° C. 24 h [21]: 25 ppm | CIMT [ppm] after storage at 21° C. 72 h [21]: 13 ppm | CIMT [ppm] after storage at 21° C. 168 h [21]: 6 ppm | CIMT [ppm] after storage at 21° C. 336 h [21]: <LOQ (below the limit of determination (<0.5 ppm CMIT)) | CIMT [ppm] after storage at 21° C. 4 [h] [22]: 52 ppm | CIMT [ppm] after storage at 21° C. 24 h [22]: 39 ppm | CIMT [ppm] after storage at 21° C. 72 h [22]: 28 ppm | CIMT [ppm] after storage at 21° C. 168 h [22]: 16 ppm | CIMT [ppm] after storage at 21° C. 336 h [22]: 5 ppm | CIMT [ppm] after storage at 21° C. 4 [h] [23]: 67 ppm | CIMT [ppm] after storage at 21° C. 24 h [23]: 56 ppm | CIMT [ppm] after storage at 21° C. 72 h [23]: 37 ppm | CIMT [ppm] after storage at 21° C. 168 h [23]: 22 ppm | CIMT [ppm] after storage at 21° C. 336 h [23]: 14 ppm | CIMT [ppm] after storage at 21° C. 4 [h] [24]: 83 ppm | CIMT [ppm] after storage at 21° C. 24 h [24]: 76 ppm | CIMT [ppm] after storage at 21° C. 72 h [24]: 64 ppm | CIMT [ppm] after storage at 21° C. 168 h [24]: 47 ppm | CIMT [ppm] after storage at 21° C. 336 h [24]: 28 ppm | CIMT [ppm] after storage at 21° C. 4 [h] [25]: 93 ppm | CIMT [ppm] after storage at 21° C. 24 h [25]: 89 ppm | CIMT [ppm] after storage at 21° C. 72 h [25]: 77 ppm | CIMT [ppm] after storage at 21° C. 168 h [25]: 63 ppm | CIMT [ppm] after storage at 21° C. 336 h [25]: 44 ppm | CIMT [ppm] after storage at 21° C. 4 [h] [26]: 102 ppm | CIMT [ppm] after storage at 21° C. 24 h [26]: 96 ppm | CIMT [ppm] after storage at 21° C. 72 h [26]: 88 ppm | CIMT [ppm] after storage at 21° C. 168 h [26]: 75 ppm | CIMT [ppm] after storage at 21° C. 336 h [26]: 61 ppm | CIMT [ppm] after storage at 21° C. 4 [h] [27]: 100 ppm | CIMT [ppm] after storage at 21° C. 24 h [27]: 101 ppm | CIMT [ppm] after storage at 21° C. 72 h [27]: 94 ppm | CIMT [ppm] after storage at 21° C. 168 h [27]: 84 ppm | CIMT [ppm] after storage at 21° C. 336 h [27]: 72 ppm
